Measured values: article PMC4450297, “Screening Active Compounds from Garcinia Species Native to China Reveals Novel Compounds Targeting the STAT/JAK Signaling Pathway” (BioMed Research International, 2015)

These compounds were tested on HCC1569 (assay: Cell panel screen (CellTiter-Glo)). Details: HCC1569 (Breast), 20 micromolar, 72 hrs.
Type: cell-based, human
In short: (§1)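 Steps: seed cells, culture overnight at 37°C; add compound diluted in medium from DMSO stock to 20 μM final; incubate 72 h; add detection reagent for 10 min; read luminescence; compute % inhibition versus vehicle controls.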

| SMILES | Percent Inhibition [%] |
| --- | --- |
| CC(C)=CCCC1(C)C=Cc2c(O)c3c(c(CC=C(C)C)c2O1)OC12C(=CC4CC1C(C)(C)OC2(CC=C(C)C(=O)O)C4=O)C3=O (mixture of isomers) [GB14] | 98 |

Each compound was assayed on HPAF-II (assay: Cell panel screen (CellTiter-Glo)). Details: HPAF-II (Pancreas), 20 micromolar, 72 hrs.
Type: cell-based, human
In short: as §1

| SMILES | Percent Inhibition [%] |
| --- | --- |
| CC(C)=CCCC1(C)C=Cc2c(O)c3c(c(CC=C(C)C)c2O1)OC12C(=CC4CC1C(C)(C)OC2(CC=C(C)C(=O)O)C4=O)C3=O (mixture of isomers) [GB14] | 97 |

Each compound was assayed on BT-549 (assay: Cell panel screen (CellTiter-Glo)). Details: BT-549 (Breast), 20 micromolar, 72 hrs.
Type: cell-based, human
In short: as §1

| SMILES | Percent Inhibition [%] |
| --- | --- |
| CC(C)=CCCC1(C)C=Cc2c(O)c3c(c(CC=C(C)C)c2O1)OC12C(=CC4CC1C(C)(C)OC2(CC=C(C)C(=O)O)C4=O)C3=O (mixture of isomers) [GB14] | 98 |

Each compound was assayed on A704 (assay: Cell panel screen (CellTiter-Glo)). Details: A704 (Kidney), 20 micromolar, 72 hrs.
Type: cell-based, human
In short: as §1

| SMILES | Percent Inhibition [%] |
| --- | --- |
| CC(C)=CCCC1(C)C=Cc2c(O)c3c(c(CC=C(C)C)c2O1)OC12C(=CC4CC1C(C)(C)OC2(CC=C(C)C(=O)O)C4=O)C3=O (mixture of isomers) [GB14] | 97 |

The compounds below were run on ChaGo-K-1 (assay: Cell panel screen (CellTiter-Glo)). Details: ChaGo-K-1 (Lung), 20 micromolar, 72 hrs.
Type: cell-based, human
In short: as §1

| SMILES | Percent Inhibition [%] |
| --- | --- |
| CC(C)=CCCC1(C)C=Cc2c(O)c3c(c(CC=C(C)C)c2O1)OC12C(=CC4CC1C(C)(C)OC2(CC=C(C)C(=O)O)C4=O)C3=O (mixture of isomers) [GB14] | 98 |

What follows are compounds tested on C8166 (assay: Cell panel screen (CellTiter-Glo)). Details: C8166 (Leukemia), 20 micromolar, 72 hrs.
Type: cell-based, human
In short: as §1

| SMILES | Percent Inhibition [%] |
| --- | --- |
| CC(C)=CCCC1(C)C=Cc2c(O)c3c(c(CC=C(C)C)c2O1)OC12C(=CC4CC1C(C)(C)OC2(CC=C(C)C(=O)O)C4=O)C3=O (mixture of isomers) [GB14] | 97 |

The compounds below were run on T98G (assay: Cell panel screen (CellTiter-Glo)). Details: T98G (Brain), 20 micromolar, 72 hrs.
Type: cell-based, human
In short: as §1

| SMILES | Percent Inhibition [%] |
| --- | --- |
| CC(C)=CCCC1(C)C=Cc2c(O)c3c(c(CC=C(C)C)c2O1)OC12C(=CC4CC1C(C)(C)OC2(CC=C(C)C(=O)O)C4=O)C3=O (mixture of isomers) [GB14] | 98 |

The compounds below were run on CW-2 (assay: Cell panel screen (CellTiter-Glo)). Details: CW-2 (Colon), 20 micromolar, 72 hrs.
Type: cell-based, human
In short: as §1

| SMILES | Percent Inhibition [%] |
| --- | --- |
| CC(C)=CCCC1(C)C=Cc2c(O)c3c(c(CC=C(C)C)c2O1)OC12C(=CC4CC1C(C)(C)OC2(CC=C(C)C(=O)O)C4=O)C3=O (mixture of isomers) [GB14] | 98 |

The compounds below were run on SW13 (assay: Cell panel screen (CellTiter-Glo)). Details: SW13 (Adrenal gland), 20 micromolar, 72 hrs.
Type: cell-based, human
In short: as §1

| SMILES | Percent Inhibition [%] |
| --- | --- |
| CC(C)=CCCC1(C)C=Cc2c(O)c3c(c(CC=C(C)C)c2O1)OC12C(=CC4CC1C(C)(C)OC2(CC=C(C)C(=O)O)C4=O)C3=O (mixture of isomers) [GB14] | 97 |

What follows are compounds tested on NCI-H524 (assay: Cell panel screen (CellTiter-Glo)). Details: NCI-H524 (Lung), 20 micromolar, 72 hrs.
Type: cell-based, human
In short: as §1

| SMILES | Percent Inhibition [%] |
| --- | --- |
| CC(C)=CCCC1(C)C=Cc2c(O)c3c(c(CC=C(C)C)c2O1)OC12C(=CC4CC1C(C)(C)OC2(CC=C(C)C(=O)O)C4=O)C3=O (mixture of isomers) [GB14] | 98 |

Each compound was assayed on Panc 03.27 (assay: Cell panel screen (CellTiter-Glo)). Details: Panc 03.27 (Pancreas), 20 micromolar, 72 hrs.
Type: cell-based, human
In short: as §1

| SMILES | Percent Inhibition [%] |
| --- | --- |
| CC(C)=CCCC1(C)C=Cc2c(O)c3c(c(CC=C(C)C)c2O1)OC12C(=CC4CC1C(C)(C)OC2(CC=C(C)C(=O)O)C4=O)C3=O (mixture of isomers) [GB14] | 97 |

Each compound was assayed on NCI-H28 (assay: Cell panel screen (CellTiter-Glo)). Details: NCI-H28 (Lung), 20 micromolar, 72 hrs.
Type: cell-based, human
In short: as §1

| SMILES | Percent Inhibition [%] |
| --- | --- |
| CC(C)=CCCC1(C)C=Cc2c(O)c3c(c(CC=C(C)C)c2O1)OC12C(=CC4CC1C(C)(C)OC2(CC=C(C)C(=O)O)C4=O)C3=O (mixture of isomers) [GB14] | 97 |

These compounds were tested on TCCSUP (assay: Cell panel screen (CellTiter-Glo)). Details: TCCSUP (Urinary bladder), 20 micromolar, 72 hrs.
Type: cell-based, human
In short: as §1

| SMILES | Percent Inhibition [%] |
| --- | --- |
| CC(C)=CCCC1(C)C=Cc2c(O)c3c(c(CC=C(C)C)c2O1)OC12C(=CC4CC1C(C)(C)OC2(CC=C(C)C(=O)O)C4=O)C3=O (mixture of isomers) [GB14] | 98 |

Each compound was assayed on T47D (assay: Cell panel screen (CellTiter-Glo)). Details: T47D (Breast), 20 micromolar, 72 hrs.
Type: cell-based, human
In short: as §1

| SMILES | Percent Inhibition [%] |
| --- | --- |
| CC(C)=CCCC1(C)C=Cc2c(O)c3c(c(CC=C(C)C)c2O1)OC12C(=CC4CC1C(C)(C)OC2(CC=C(C)C(=O)O)C4=O)C3=O (mixture of isomers) [GB14] | 98 |

Each compound was assayed on NCI-H1770 (assay: Cell panel screen (CellTiter-Glo)). Details: NCI-H1770 (Lung), 20 micromolar, 72 hrs.
Type: cell-based, human
In short: as §1

| SMILES | Percent Inhibition [%] |
| --- | --- |
| CC(C)=CCCC1(C)C=Cc2c(O)c3c(c(CC=C(C)C)c2O1)OC12C(=CC4CC1C(C)(C)OC2(CC=C(C)C(=O)O)C4=O)C3=O (mixture of isomers) [GB14] | 97 |

Each compound was assayed on MSTO-211-H (assay: Cell panel screen (CellTiter-Glo)). Details: MSTO-211-H (Lung), 20 micromolar, 72 hrs.
Type: cell-based, human
In short: as §1

| SMILES | Percent Inhibition [%] |
| --- | --- |
| CC(C)=CCCC1(C)C=Cc2c(O)c3c(c(CC=C(C)C)c2O1)OC12C(=CC4CC1C(C)(C)OC2(CC=C(C)C(=O)O)C4=O)C3=O (mixture of isomers) [GB14] | 97 |

Each compound was assayed on NCI-H1694 (assay: Cell panel screen (CellTiter-Glo)). Details: NCI-H1694 (Lung), 20 micromolar, 72 hrs.
Type: cell-based, human
In short: as §1

| SMILES | Percent Inhibition [%] |
| --- | --- |
| CC(C)=CCCC1(C)C=Cc2c(O)c3c(c(CC=C(C)C)c2O1)OC12C(=CC4CC1C(C)(C)OC2(CC=C(C)C(=O)O)C4=O)C3=O (mixture of isomers) [GB14] | 98 |

These compounds were tested on ZR-75-30 (assay: Cell panel screen (CellTiter-Glo)). Details: ZR-75-30 (Breast), 20 micromolar, 72 hrs.
Type: cell-based, human
In short: as §1

| SMILES | Percent Inhibition [%] |
| --- | --- |
| CC(C)=CCCC1(C)C=Cc2c(O)c3c(c(CC=C(C)C)c2O1)OC12C(=CC4CC1C(C)(C)OC2(CC=C(C)C(=O)O)C4=O)C3=O (mixture of isomers) [GB14] | 99 |
